Assay results published in US20220008437A1, “Use of prostaglandin E1 methyl ester in manufacture of vasodilator” (XI'AN LIBANG ZHAOXIN BIOTECHNOLOGY CO., LTD., priority 2018, published 2022).
Read-outs that look alike come from different tables or passages of the source.

How the values were obtained:
[1] = tested on: human umbilical vein endothelial cells (HUVEC); assay: HUVEC proliferation, MTT detection; format: cell-based; conditions: 1-100 nM, incubated 24 hours, compared with unmedicated wells
Description: Frozen human umbilical vein endothelial cells (HUVEC) were resuscitated and placed in low-sugar DMEM medium with 10% (V/V) FBS, and 100 U/L penicillin and 0.1 g/L streptomycin were added. It was cultured artificially in an environment of 5% CO2 and 95% air at a temperature of 37° C. A fresh medium was replaced every three days. When the cell density reached 70-80%, the digestion solution (0.25% trypsin/0.02EDTA) was used to harvest the cells. After the cells were resuspended, they were seeded in a 96-well plate with a density of 5×10^3 per well. After 1 day of culture, 1-100 nM of prostaglandin methyl ester was added and incubated for 24 hours for MTT detection.

[2] = molecular target: T1, hDP1 (Homo sapiens, UniProt Q13258); assay: radioligand ([3H] Prostaglandin D2) competitive receptor binding assay, DP receptor affinity in vitro; conditions: Test Concentration 100 nM; [3H] PGD2 radioligand; read-out: Inhibition rate
T1 sequence (Q13258 1-359): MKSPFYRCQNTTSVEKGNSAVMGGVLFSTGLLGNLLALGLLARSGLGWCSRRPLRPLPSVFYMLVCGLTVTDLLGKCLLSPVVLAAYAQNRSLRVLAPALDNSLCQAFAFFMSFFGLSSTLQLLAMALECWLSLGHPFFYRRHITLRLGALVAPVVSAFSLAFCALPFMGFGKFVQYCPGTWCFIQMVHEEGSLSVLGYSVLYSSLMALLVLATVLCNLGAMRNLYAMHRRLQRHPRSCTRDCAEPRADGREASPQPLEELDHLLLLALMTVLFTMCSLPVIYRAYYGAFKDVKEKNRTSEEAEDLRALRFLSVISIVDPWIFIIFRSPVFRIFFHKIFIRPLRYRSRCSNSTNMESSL
Description: Affinity Test of DP Receptor Target In Vitro.
The radioligand ([3H] Prostaglandin D2 (PGD2)) competitive receptor binding assay was used to evaluate the affinity of the test compound with the DP receptor.

[3] = tested on: isolated rabbit blood vessels; assay: vasodilation test in vitro, isolated aortic ring specimens; format: cell-based, New Zealand white rabbits; conditions: isolated rabbit thoracic aortic rings, cumulative addition 0.05-25.6 nM, read-out: diastolic efficacy EC50
Description: The Effect of the Prostaglandin E1 Methyl Ester of the Disclosure in the Vasodilation Test In Vitro
In the experiment, rabbits were selected to prepare isolated aortic ring specimens: New Zealand white rabbits, male, weighing (2.5±0.3) kg. The rabbit was stunned with a blunt instrument, fixed on the rabbit dissecting table, and the thoracic aorta was quickly separated, and placed in a petri dish filled with saturated Kerbs solution (containing NaCl 6.9 g, KCl 0.35 g, MgSO4.7H2O 0.29 g, KH2PO4 0.16 g, NaHCO32.1 g, CaCl2) 0.28 g, glucose 2 g per 1000 mL) at 37° C. and continuously introduced with mixed gas (95% O2, 5% CO2). The remaining blood in the blood vessel was squeezed out, and the peripheral fat and connective tissue were carefully peeled off, and it was cut into 0.5 cm long arterial rings for use. […]
BL-420S biological function experiment system (Chengdu Techman Technology) was used to record the variation of vascular ring tension. After the vascular ring contraction was stable, prostaglandin E1 and the compounds of the Examples were accumulatively added to successively increase the final mass concentration of prostaglandin E1 in the bath tube to 0.05, 0.1, 0.2, 0.4, 0.8, 1.6, 3.2, 6.4, 12.8, 25.6 nM, and the diastolic efficacies of the vascular ring were recorded.

[4] = tested on: mouse scleroderma model; assay: mouse scleroderma model (bleomycin subcutaneously); format: in vivo, Balb/c mice; conditions: for Skin thickness / Collagen content: osmotic pump 28 days; for Skin thickness: inferior vena cava; for Collagen content: skin
Description: Therapeutic Effect of Prostaglandin E1 Methyl Ester in Mouse Scleroderma Model In this experiment, 56 Balb/c mice weighing 22-25 g were randomly divided into 7 groups: normal group, model group, vehicle group, prostaglandin E1 high-dose group and prostaglandin E1 low-dose group, and prostaglandin E1 methyl ester high-dose group and prostaglandin E1 methyl ester low-dose group. Model preparation: the clothing hair on the central area of the mice was shaved, the normal group was injected with 0.1 ml PBS subcutaneously on the back, and the other groups were injected with 0.1 ml of 0.2 mg/ml bleomycin subcutaneously, once a day for three weeks. […] Prostaglandin E1 high and low-dose groups were loaded with 28 μg and 14 μg of drugs respectively; prostaglandin E1 methyl ester high and low-dose groups were also loaded with 28 μg and 14 μg of drugs respectively; solvent group was not loaded with drugs. […] The administration was started at the same time as the model was created. Index detection: After the administration, the animals were sacrificed, and skin and lung sections of the injection site were made, and HE stained. The histological changes were observed, and the skin (dermis) thickness was measured; and the photoelectric colorimetry was used to determine the content of hydroxyproline and protein in the skin to infer the content of collagen.

[5] = tested on: ADP-induced platelet aggregation; assay: anti-platelet aggregation test in vitro (platelet-rich plasma, ADP inducer); format: cell-based, SD rats; conditions: for inhibition at 100 µM: Rattus norvegicus, Platelet, 10 min, after 10 minutes of incubation, read-out: inhibition rate on ADP-induced platelet aggregation; for onset of anti-platelet aggregation effect after addition to PRP: incubation 0 min onward, FIG. 1
Description: The Effect of the Prostaglandin E1 Methyl Ester of the Disclosure in the Anti-Platelet Aggregation Test In Vitro.
When healthy adult SD rats were anesthetized by intraperitoneal injection of 10% chloral hydrate, fresh whole blood was collected from the abdominal aorta and added to a centrifuge tube anticoagulated with 3.8% sodium citrate solution, and centrifuged at 900 rpm for 10 minutes to remove the upper platelet-rich plasma (PRP) for use. The tube having PRP removed was further centrifuged at 4000 rpm for 10 minutes, and the upper clarified plasma (PPP) was removed for use. In the experiment, Techlink model LBY-NJ4 4-channel platelet aggregator was used to determine the anticoagulant efficacy of each compound.
Into a sample cup containing 300 μL of PRP, 2 μL of 100 μM prostaglandin E1, prostaglandin E1 methyl ester of example 1, Compound 2 of Example 2 and methanol (solvent) were first added. After incubated for different periods (0, 1, 2, 4, 7, 10, 15 min), 20 μL of aggregation inducer 180 μM ADP solution was added. The aggregation rate of each sample was measured, and the inhibitory rate of the compound on ADP-induced platelet aggregation was calculated.
Inhibition rate %=(solvent aggregation rate−compound aggregation rate)/solvent aggregation rate×100%

[6] = distribution in rat skin tissue (total radiation value); conditions: 200 μg [3H]-labelled drug via osmotic pump over 3 days, inferior vena cava
Description: Distribution of Prostaglandin E1 Methyl Ester in Rat Skin Tissue
In this experiment, 12 male SD rats weighing 250-280 g were randomly divided into two groups (n=6): prostaglandin E1 group and prostaglandin E1 methyl ester group. Osmotic pumps (model 1003D, ALZA Corporation, Canada) containing 100 μl of drug in DMSO were used. The drug was released at a constant rate, and the drug release cycle was 3 days. They were loaded with 200 μg of [^3H] prostaglandin E1 and [^3H] prostaglandin E1 methyl ester respectively. […] After the administration, the animals were sacrificed, skin tissues were taken (the same position for each animal), weighed, and the total radiation value was measured.

[7] = 2 μL of 100 μM compound in 300 μL PRP

EC50 [3]	Skin tissue concentration [6]	Compound	proliferation of vascular endothelial cells [1]	inhibition at 0.1 µM [2]	EC50 ([3]; Oryctolagus cuniculus)	lung tissue histology (alveolar septum thickening, inflammatory cell infiltration) ([4]; HE stained lung sections, compared with prostaglandin E1 group)	Skin thickness ([4]; high-dose 1 ug/day)	Collagen content ([4]; high-dose 1 ug/day)	Skin thickness ([4]; low-dose 0.5 ug/day)	Collagen content ([4]; low-dose 0.5 ug/day)	inhibition at 100 µM [5, 7]	duration of anticoagulant effect relative to prostaglandin E1 ([5]; compared with prostaglandin E1)	onset of anti-platelet aggregation effect after addition to PRP [5]	inhibition rate on ADP-induced platelet aggregation ([5]; after 4 minutes of incubation, 2 μL of 100 μM compound in 300 μL PRP)
		CCCCCC(O)/C=C/C1C(O)CC(=O)C1CCCCCCC(=O)OC (stereo not drawn) [prostaglandin E1 methyl ester]	significant effect of promoting the proliferation of vascular endothelial cells	78%	1.09 nM	slightly better than the prostaglandin E1 group	21.35 ± 2.11 μm	467.52 ± 141.08 mg/L	24.66 ± 2.54 μm	588.62 ± 127.41 mg/L	43.7%	2 times	take effect immediately	
		CCCCC[C@H](O)/C=C/[C@H]1[C@H](O)CC(=O)[C@@H]1CCCCCCC(=O)OCC [Compound 2]									51.9%		does not take effect immediately	
9.77 nM	45.1 ± 7.5 ng (radiatione quivalent)/g	CCCCC[C@H](O)/C=C/[C@H]1[C@H](O)CC(=O)[C@@H]1CCCCCCC(=O)O [prostaglandin E1, Prostaglandin E1]					29.12 ± 2.46 μm	879.66 ± 128.92 mg/L	32.59 ± 3.03 μm	947.99 ± 214.86 mg/L			take effect immediately	4.93%
